# Reference: ChEMBL document CHEMBL4706671, “A High-Affinity Peptide Ligand Targeting Syntenin Inhibits Glioblastoma” (J Med Chem, 2021)
# Active and inactive are the calls of the source. The rule behind the calls is not given here. Non-standard residues stand in square brackets, D forms with d. Residues, ends and D or L forms follow the SMILES beside them. *: point of attachment. X1 = CN(C)c1ccc2c(-c3cc(C(=O)*)ccc3C(=O)[O-])c3ccc(=[N+](C)C)cc-3oc2c1; Biotin = O=C1N[C@H]2[C@H](CS[C@H]2CCCCC(=O)*)N1; Chg = N[C@H](C(=O)O)C1CCCCC1; Tle = CC(C)(C)[C@H](N)C(=O)O; AEEA = NCCOCCOCC(=O)O
# Columns and labels:
# [1] = target: T1, Syntenin-1 (Homo sapiens) (UniProt O00560); experiment: Inhibition of mCherry-labeled-syntenin expressed in human MCF7 cells co-expressing […] Q79L mutant assessed as reduction in syntenin-dependent intracellular endosomal budding at 0.1 to 10 uM incubated for 24 hrs; type: cell-based; details: dose 0.1-10 µM
# T1 sequence (whole entry): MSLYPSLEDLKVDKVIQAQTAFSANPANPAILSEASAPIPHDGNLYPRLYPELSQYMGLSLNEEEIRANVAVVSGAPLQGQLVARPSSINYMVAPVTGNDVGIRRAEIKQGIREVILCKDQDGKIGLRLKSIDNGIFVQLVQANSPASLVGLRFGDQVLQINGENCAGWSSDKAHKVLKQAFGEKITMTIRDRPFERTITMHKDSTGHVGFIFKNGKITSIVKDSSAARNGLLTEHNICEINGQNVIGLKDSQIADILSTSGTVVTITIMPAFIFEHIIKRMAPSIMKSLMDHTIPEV
# Syntenin-1 [2] = target: T2, Syntenin-1 (Homo sapiens, UniProt O00560); experiment: (§1) Inhibition of syntenin-PDZ1-2 domain (unknown origin) expressed in Escherichia coli BL21 (DE3) incubated for 5 mins by fluorescence polarization assay
# T2 sequence (O00560 whole entry): T1 sequence (whole entry)
# A2058 = experiment: Antineoplastic activity against human A2058 cells assessed as reduction in cell viability incubated for 72 hrs by Cell-titer-Glo luminescent cell viability assay; type: functional, cell-based
# [3] = Stability in human plasma assessed as half life for compound degradation at 0.2 mM by UPLC analysis; type: ADME, cell-free
# HT-29 = experiment: Antineoplastic activity against human HT-29 cells assessed as reduction in cell viability at 10 to 30 uM incubated for 72 hrs by Cell-titer-Glo luminescent cell viability assay; type: functional, cell-based; details: dose 10-30 µM
# [4] = Stability in mouse hepatic microsomes assessed as half life for compound degradation at […] in presence of NADPH by UPLC analysis; type: ADME, Microsome; details: liver microsomes
# MCF7 = experiment: Antineoplastic activity against human MCF7 cells assessed as reduction in cell viability at 10 to 30 uM incubated for 72 hrs by Cell-titer-Glo luminescent cell viability assay; type: functional, cell-based; details: dose 10-30 µM
# [5] = Drug distribution in cytoplasm of human patient-derived GBM002 cells at 10 to 30 uM incubated for 2 to 24 hrs hrs by confocal microscopy; type: ADME, subcellular; details: gbm, dose lower 10 µM, time lower 2 hrs, dose upper 30 µM, time upper 24 hrs
# GBM [6] = experiment: Antineoplastic activity against human patient-derived GBM cells xenografted in NMRInu-F receiving GBM cells pre-treated with 50 uM compound for 24 hrs assessed as median survival time (reference value: 25 days); type: functional
# Astrocyte = experiment: Cytotoxic activity against normal human astrocytes assessed as reduction in cell viability at 20 to 30 uM incubated for 24 hrs by Cell-titer-Glo luminescent cell viability assay; type: cell-based; details: dose 20-30 µM
# GBM [7] = experiment: Antineoplastic activity against human patient-derived GBM002 cells assessed as reduction in cell viability incubated for 72 hrs by Cell-titer-Glo luminescent cell viability assay; type: functional, cell-based
# GBM [8] = experiment: Antineoplastic activity against human patient-derived GBM001 cells assessed as reduction in cell viability incubated for 72 hrs by Cell-titer-Glo luminescent cell viability assay; type: functional, cell-based
# [9] = target: T1, Syntenin-1 (Homo sapiens); experiment: as §1
# HEK293 = experiment: Cytotoxic activity against HEK293 cells assessed as reduction in cell viability at 12.5 to 50 uM incubated for 24 hrs by Cell-titer-Glo luminescent cell viability assay; type: cell-based; details: human, hek293, 24 h, dose 12.5-50 µM
# [10] = target: T1, Syntenin-1 (Homo sapiens); experiment: Binding affinity to human syntenin-PDZ1 domain assessed as binding intensity by HTS holdup assay
# [11] = target: T1, Syntenin-1 (Homo sapiens); experiment: Binding affinity to human syntenin-PDZ2 domain assessed as binding intensity by HTS holdup assay
# [12] = target: T1, Syntenin-1 (Homo sapiens); experiment: Binding affinity to syntenin-PDZ1-2 domain (unknown origin) expressed in Escherichia coli BL21 (DE3) assessed as apparent dissociation rate constant by SPR analysis
# [13] = target: T1, Syntenin-1 (Homo sapiens); experiment: Binding affinity to syntenin-PDZ1-2 domain (unknown origin) expressed in Escherichia coli BL21 (DE3) assessed as apparent association rate constant by SPR analysis
# Syntenin-1 [14] = target: T2, Syntenin-1; experiment: Binding affinity to syntenin-PDZ1-2 domain (unknown origin) expressed in Escherichia coli BL21 (DE3) by SPR analysis
# Homo sapiens = species on record: Homo sapiens; experiment: Selectivity index, ratio of Kd for binding affinity to syntenin2-PDZ1-2 domain (unknown origin) expressed in Escherichia coli BL21 (DE3) by SPR analysis to Kd for binding affinity to syntenin-PDZ1-2 domain (unknown origin) expressed in Escherichia coli BL21 (DE3) by SPR analysis
molecule,measurement,setting,value
CC[C@H](C)[C@@H](NC(=O)[C@H](CC(=O)O)NC(=O)[C@@H](NC(=O)[C@@H](NC(=O)[C@H](Cc1c[nH]c2ccccc12)NC(=O)[C@H](Cc1cnc[nH]1)NC(=O)[C@H](CO)NC(=O)[C@H](CCCNC(=N)N)NC(=O)[C@H](CCCNC(=N)N)NC(=O)[C@H](CCCNC(=N)N)NC(=O)[C@H](CCCNC(=N)N)NC(=O)[C@H](CCCNC(=N)N)NC(=O)[C@H](CCCNC(=N)N)NC(=O)[C@H](CCCNC(=N)N)NC(=O)[C@H](CCCNC(=N)N)NC(=O)[C@H](CCCNC(=N)N)NC(C)=O)C(C)(C)C)C1CCCCC1)C(=O)O,inhibition,[1],Dose-dependent effect
same,Ki,Syntenin-1 [2],250 nM
CC[C@H](C)[C@@H](NC(=O)[C@H](CC(=O)O)NC(=O)[C@@H](NC(=O)[C@@H](NC(=O)[C@H](Cc1c[nH]c2ccccc12)NC(=O)[C@H](Cc1cnc[nH]1)NC(=O)[C@H](CO)NC(=O)[C@@H]1CCC(=O)NCCCC[C@H](NC(C)=O)C(=O)N[C@H](CCCNC(=N)N)C(=O)N[C@@H](CCCNC(=N)N)C(=O)N[C@H](CCCNC(=N)N)C(=O)NCC(=O)N[C@H](CCCNC(=N)N)C(=O)N[C@@H](CCCCN)C(=O)N[C@H](CCCCN)C(=O)N[C@@H](CCCNC(=N)N)C(=O)N[C@H](CCCNC(=N)N)C(=O)N1)C(C)(C)C)C1CCCCC1)C(=O)O,inhibition,[1],Dose-dependent effect
same,Activity,A2058,Dose-dependent effect
same,half-life at 200 µM,[3],> 1440 min
same,Ki,Syntenin-1 [2],250 nM
same,Activity,HT-29,inactive
same,half-life,[4],> 60 min
same,Activity,MCF7,inactive
CC[C@H](C)[C@H](NC(=O)[C@H](CC(=O)O)NC(=O)[C@@H](NC(=O)[C@@H](NC(=O)[C@H](Cc1c[nH]c2ccccc12)NC(=O)[C@H](Cc1c[nH]cn1)NC(=O)[C@H](CO)NC(=O)[C@H](CCCNC(=N)N)NC(=O)[C@H](CCCNC(=N)N)NC(=O)[C@H](CCCNC(=N)N)NC(=O)[C@H](CCC(N)=O)NC(=O)[C@H](CCCNC(=N)N)NC(=O)[C@H](CCCNC(=N)N)NC(=O)[C@H](CCCCN)NC(=O)[C@H](CCCCN)NC(=O)[C@H](CCCNC(=N)N)NC(=O)CNC(=O)[C@H](Cc1ccc(O)cc1)NC(C)=O)C(C)(C)C)C1CCCCC1)C(=O)O,half-life,[4],> 60 min
CC[C@H](C)[C@@H](NC(=O)[C@H](CC(=O)O)NC(=O)[C@@H](NC(=O)[C@@H](NC(=O)[C@H](Cc1c[nH]c2ccccc12)NC(=O)[C@H](Cc1cnc[nH]1)NC(=O)[C@H](CO)NC(=O)[C@H](CCCNC(=N)N)NC(=O)[C@H](CCCNC(=N)N)NC(=O)[C@H](CCCNC(=N)N)NC(=O)[C@H](CCC(N)=O)NC(=O)[C@H](CCCNC(=N)N)NC(=O)[C@H](CCCNC(=N)N)NC(=O)[C@H](CCCCN)NC(=O)[C@H](CCCCN)NC(=O)[C@H](CCCNC(=N)N)NC(=O)CNC(=O)[C@H](Cc1ccc(O)cc1)NC(C)=O)C(C)(C)C)C1CCCCC1)C(=O)O,inhibition,[1],Dose-dependent effect
same,Ki,Syntenin-1 [2],250 nM
CC[C@H](C)[C@H](NC(=O)[C@H](CC(=O)O)NC(=O)CNC(=O)[C@H](Cc1cnc[nH]1)NC(=O)[C@H](CS)NC(=O)[C@H](CCC(=O)O)NC(=O)[C@H](CC(C)C)NC(=O)[C@@H](NC(=O)[C@H](Cc1c[nH]c2ccccc12)NC(=O)[C@H](Cc1cnc[nH]1)NC(=O)[C@H](CO)NC(=O)[C@H](CCCNC(=N)N)NC(=O)[C@H](CCCNC(=N)N)NC(=O)[C@H](CCCCN)NC(=O)[C@H](CCCCN)NC(=O)[C@H](CCCNC(=N)N)NC(=O)CNC(=O)[C@H](CCCNC(=N)N)NC(=O)[C@H](CCCNC(=N)N)NC(=O)[C@H](CCCNC(=N)N)NC(=O)[C@H](CS)NC(=O)[C@H](C)N)[C@@H](C)O)C(=O)O (H-ACRRRGRKKRRSHWTLECHGDI-OH),Drug uptake,[5],Dose-dependent effect and Tde
same,inhibition,[1],Dose-dependent effect
same,MST,GBM [6],45.5 days
same,Activity,Astrocyte,Toxic
same,Activity,A2058,Dose-dependent effect
same,Activity,GBM [7],Dose-dependent effect
same,Activity,GBM [8],Dose-dependent effect
same,inhibition,[9],Active
same,Activity,HEK293,Toxic
same,Activity,HT-29,inactive
same,half-life,[4],> 60 min
same,Activity,MCF7,inactive
CC[C@H](C)[C@H](NC(=O)[C@H](Cc1cnc[nH]1)NC(=O)[C@@H](NC(=O)[C@@H](NC(=O)[C@@H](N)CC(=O)O)C1CCCCC1)C(C)(C)C)C(=O)N[C@@H](Cc1c[nH]c2ccccc12)C(=O)N[C@@H](CO)C(=O)O (H-D[Chg][Tle]HIWS-OH),Ki,Syntenin-1 [2],> 500000 nM
CC[C@H](C)[C@H](NC(=O)[C@H](CC(=O)O)NC(=O)[C@@H](NC(=O)[C@@H](NC(=O)[C@H](Cc1c[nH]c2ccccc12)NC(=O)[C@H](Cc1cnc[nH]1)NC(=O)[C@H](CO)NC(=O)CNC(=O)[C@H](CC(N)=O)NC(=O)[C@H](CC(N)=O)NC(=O)c1ccc(C(=O)[O-])c(-c2c3ccc(=[N+](C)C)cc-3oc3cc(N(C)C)ccc23)c1)C(C)(C)C)C1CCCCC1)C(=O)O (X1-NNGSHW[Tle][Chg]DI-OH),Ki,Syntenin-1 [2],30 nM
CC[C@H](C)[C@H](NC(=O)[C@H](CC(=O)O)NC(=O)[C@@H](NC(=O)[C@@H](NC(=O)[C@H](Cc1c[nH]c2ccccc12)NC(=O)[C@H](Cc1cnc[nH]1)NC(=O)[C@H](CO)NC(=O)COCCOCCNC(=O)CCCC[C@@H]1SC[C@@H]2NC(=O)N[C@@H]21)C(C)(C)C)C1CCCCC1)C(=O)O ({Biotin-AEEA}-SHW[Tle][Chg]DI-OH),Flu intensity,[10],0.96
same,Activity,[11],inactive
same,K,[12],0.05 s⁻¹
same,K,[13],3.1 10^5/M/s
same,Ki,Syntenin-1 [14],170 nM
same,Ki,Syntenin-1 [2],190 nM
same,Ratio,Homo sapiens,440
CC(C)NCC(O)COc1cccc2ccccc12 (stereo not drawn) [PROPRANOLOL],half-life,[4],35 min
H-KDKEYYV-OH,Ki,Syntenin-1 [2],110000 nM
H-NAIYSLA-OH,Ki,Syntenin-1 [2],100000 nM
H-RSGYEVM-OH,Ki,Syntenin-1 [2],24000 nM
H-SHWTIDI-OH,half-life at 200 µM,[3],8.5 min
same,Ki,Syntenin-1 [2],2000 nM
same,half-life,[4],> 60 min
H-SKGETAV-OH,Ki,Syntenin-1 [2],10000 nM
H-TLEDSVF-OH,Ki,Syntenin-1 [2],44000 nM
H-TTNEFYA-OH,Ki,Syntenin-1 [2],2000 nM
